Experimental data taken from PMC2362691, “A phase I study of the lipophilic thymidylate synthase inhibitor Thymitaq™ (nolatrexed dihydrochloride) given by 10-day oral administration” (British Journal of Cancer, 1999).
Values joined by “and” are separate entries in the source; they are usually repeats but may differ in a detail not shown here. Equal values may be shown once. Read-outs that look alike come from different tables or passages of the source.

Legend:
[1] = set-up: method as in earlier work; conditions: clinical trial, ref Calvert et al, 1986, 1987, Bassendine et al, Cantwell et al, 1988; cited from earlier work
[2] = set-up: method as in Rafi et al, 1996; conditions: patients, 5-day oral administration; ref Rafi et al, 1996; cited from earlier work
[3] = cited from earlier work
[4] = Phase I study of 10-day oral nolatrexed (6 hourly, every 21 days): toxicity by CTC grade; conditions: 6 hourly for 10 days, repeated at 3-weekly intervals (143 mg m-2 every 6 h)
[5] = rats fasted before treatment, introduction, no reference given, cited from earlier work
[6] = set-up: method as in Rafi et al, 1995; conditions: continuous 24-h infusion, ref Rafi et al, 1995, cited from earlier work
[7] = no reference given, cited from earlier work; for bioavailability of proposed clinical formulation: capsules with microcrystalline cellulose and crospovidone, dosing preceded and followed by water gavage
[8] = cited from earlier work; remark: listed apart in the source
[9] = in vivo
thymidylate synthase = assay: Plasma deoxyuridine (dUrd) concentrations, pretreatment vs day 10; assay type: in vivo, cancer patients
[10] = set-up: method as in Jodrell et al, 1991; conditions: ref Jodrell et al, 1991; cited from earlier work
[11] = 10-day intravenous infusion, 716 mg m-2 day-1, ref Creaven et al (1998)
[12] = 5-day intravenous infusion, ref Rafi et al, 1998

C#CCN(Cc1ccc2nc(N)[nH]c(=O)c2c1)c1ccc(C(=O)N[C@@H](CCC(=O)O)C(=O)O)cc1 [CB 3717, N10-propargyl-5,8-dideazafolic acid]
toxicity that led to abandoned development [1]: sporadic and unpredictable nephrotoxicity and myelotoxicity

Cc1ccc2nc(N)[nH]c(=O)c2c1Sc1ccncc1.Cl.Cl [nolatrexed, 2-Amino-3,4-dihydro-6-methyl-4-oxo-5-(4-pyridylthio)-quinazoline dihydrochloride]
oral bioavailability [2]: 70–100%
patients who completed the dose level [3, 11]: zero out of three
patients with grade 4 myelosuppression [3, 11]: two out of three
patients with dose-limiting myelosupression ([3]; in vivo, iv): one out of four
maximum tolerated dose [4]: 572 mg m-2 day-1
patients who achieved disease stabilization (human, in vivo): three
patients with progressive disease on treatment (ten out of 23 patients had evaluable disease): seven
oral bioavailability ([5]; 20 mg kg-1 (120 mg m-2)): 53%
oral bioavailability ([5]; 40 mg kg-1 (240 mg m-2)): 50%
oral bioavailability ([5]; 80 mg kg-1 (480 mg m-2)): 30%
systemic toxicity ([6]; maximum dose administered 1073 mg m-2): no systemic toxicity
local toxicity (phlebitis), CTC grade [6]: 2 CTC grade
bioavailability of proposed clinical formulation ([7]; one dog): 70% and 107%
bioavailability of proposed clinical formulation ([7]; second dog): 87%
bioavailability ([7]; dogs fasted overnight, in 5% dextrose by gavage, introduction): > 90%
duration of partial response ([8]; 5-day intravenous infusion, one patient with metastatic colorectal cancer, ref Rafi et al, 1998): 3 months
dose-limiting toxicity [8, 12]: neutropenia
maximum tolerated dose [8, 12]: 904 mg m-2 day-1
recommended phase II dose [8, 12]: 800 mg m-2 day-1
clearance ([8]; supported by median trough values of this study, ref Rafi et al (1998)): dose dependent
dose level that could be considered for phase II testing ([9]; human, 10 days): 429 mg m-2 day-1
doses at which thrombocytopenia (grade 1 or 2) occurred ([9]; human, po, 10 days): ≥ 318 mg m^−2day^−1
additional patients with increased sensitivity to sunlight, no apparent rash [9]: five
patients with elevation of serum bilirubin [9]: nine
patients with skin rash [9]: eight
elevation in plasma dUrd compared with baseline (thymidylate synthase; 429 mg m-2 day-1, in three out of four patients with data): > 75%
rise of plasma dUrd concentration, median (thymidylate synthase; day 10 vs pretreatment, 12 out of 23 patients, all dose levels): 90 % of baseline

Cc1nc2ccc(CN(C)c3ccc(C(=O)N[C@@H](CCC(=O)O)C(=O)O)s3)cc2c(=O)[nH]1 [raltitrexed]
nephrotoxicity [10]: non-nephrotoxic
